This note sets out measurements from patent EP2397458A1, “Organic salts and co-crystals of phenylbutyric acid” (Lunamed AG, priority 2010, dated 2011).

A short description of data set [1]: Aqueous solubility determination (saturated solution, HPLC; pH of saturated solution). In kind it is physicochemical. To be noted: for pH of the corresponding saturated solution: saturated aqueous solution after 24 h at 25°C; for solubility at 24 h: doubly distilled water, after 24 h of equilibration at 25°C. As for the experimental part: (§1) For this measurement approximately 1.0 mL of doubly distilled water was added to 18 mg of the substance according Example 1 to be measured. The resulting suspension was equilibrated in a temperature-controlled Eppendorf Thermomixer Comfort shaker for 24 h at 25°C at a shaking rate of 600 rpm. The solid phase was recovered by filter centrifugation (0.10-µm PVDF membrane) and examined by FT-Raman spectroscopy. Concentrations in the filtrate (i.e., saturated solutions) were determined by HPLC (see below). The pH of the saturated solution was determined with a Metrohm 713 pH meter. HPLC: TSP instrument with P4000 pump, AS3000 autosampler, SCM1000 degasser, UV3000 detector, and PC1000 Vers. 4.1 software. Table 4: HPLC method used for solubility determinations.
as §1, with “8:” for “4:”

Data set [2] in a line: DVS / hygroscopy measurement. In kind it is physicochemical. The note with it: for hygroscopy: DVS humidity program 50 → 95 → 0 → 50% r.h. The protocol:
For the measurement of hygroscopy of the salt a Projekt Messtechnik Sorptions Prüfsystem SPS 11 - 100n was used. (Hygroscopy of the phenylbutyric acid for comparison was measured with the Surface Measurement Systems DVS-1 ). The salt sample was placed on an aluminium (SPS 11) holder (for phenylbutyric acid on a platinum holder (DVS-1)) on top of a microbalance and allowed to equilibrate for 2 h at 50% r.h. before starting the pre-defined humidity program: • (1)2hat50%r.h. • (2) 50 → 95% r.h. (5%/h); 5 h at 95% r.h. • (3) 95 → 0% r.h. (5%/h); 5 h at 0% r.h. • (4) 0 → 50% r.h. (5%/h); 2 h at 50% r.h.
For the measurement of hygroscopy of the salt a Projekt Messtechnik Sorptions Prüfsystem SPS 11 - 100n was used. (Hygroscopy of the phenylbutyric acid for comparison was measured with the Surface Measurement Systems DVS-1). The salt sample was placed on an aluminium (SPS 11) holder (for phenylbutyric acid on a platinum holder (DVS-1)) on top of a microbalance and allowed to equilibrate for 2 h at 50% r.h. before starting the pre-defined humidity program: • (1)2hat50%r.h. • (2) 50 → 95% r.h. (5%/h); 5 h at 95% r.h. • (3) 95 → 0% r.h. (5%/h); 5 h at 0% r.h. • (4) 0 → 50% r.h. (5%/h); 2 h at 50% r.h. […] However, raising the relative humidity further from 80 to 95% r.h. results in a steep gain of -10 wt.-%. Upon lowering the relative humidity, the mass decreases only slightly (by -2.2 w1.-%) until a relative humidity of -60 % r.h. is reached. Then a steep loss of -10 wt.-% occurs until the mass of the starting material is reached at -45% r.h. […] Upon lowering the relative humidity from 50 to 0% r.h. a mass loss of -0.3 wt.-% is observed, but it is fully reversible. At the end of the cycle the sample had essentially the same mass as the starting material. […] A sesquihydrate of the hemi-benzathine salt (1 :0.5:1.5 phenylbutyrate:benzathine:H2O) has a theoretical water content of 9.5 wt.-%. A reversible hydrate formation occurred during the DVS experiment.

Counter-ions that a name gives are not always drawn.

For orientation: solubility means the concentration that dissolves in the medium under given conditions. Consider `O=C(O)CCCc1ccccc1` [Example 1, 4-Phenylbutyrate-Mono-Benethamine salt], for which the “pH of the corresponding saturated solution” value in data set [1] is on record as 7.2. In data set [1] (water, solid residue Raman spectrum unchanged), this compound gave a solubility at 24 h of 1900 µg/mL. Also, the hygroscopy result in data set [2] is “not hygroscopic”; in data set [2] (listed as 4-Phenylbutyrate-Mono-Benethamine salt), “non-hygroscopic”.
For the compound `O=C(O)CCCc1ccccc1` [Example 2, 4-Phenylbutyrate-Hemi-Benzathine salt], the solubility at 24 h in data set [1] (value corresponds to a hydrate of the benzathine salt, not to the anhydrous form) stood at 1700 µg/mL. Besides, the “pH of the corresponding saturated solution” value in data set [1] (hydrate formed and precipitated during equilibration) stood at 6.2. Also, the gradual mass gain in data set [2] (DVS, increasing the relative humidity from 50 to 80% r.h.) is given as -1.3 wt.-%. The mass loss in data set [2] (DVS, lowering the relative humidity from 50 to 0% r.h., fully reversible) was -0.3 wt.-%. Moreover, the mass decrease in data set [2] (DVS, lowering the relative humidity from 95% until -60 % r.h. is reached) is -2.2 w1.-%. Also, the “steep loss (mass)” value in data set [2] (DVS, lowering the relative humidity from -60 % r.h. until -45% r.h. (mass of starting material reached)) is on record as -10 wt.-%. The “steep gain (mass)” value in data set [2] (DVS, raising the relative humidity from 80 to 95% r.h.) was -10 wt.-%.
